Experimental data as given in publication PMC11314621, “Cheminformatics-Guided Exploration of Synthetic Marine Natural Product-Inspired Brominated Indole-3-Glyoxylamides and Their Potentials for Drug Discovery” (Molecules, 2024).

test system: P. falciparum 3D7; experiment: Antiplasmodial image-based assay, 3D7 strain; assay type: cell-based, Plasmodium falciparum; conditions: 60 µM; chloroquine-sensitive P. falciparum strain 3D7; 72 h
Experimental: (§1) An anti-plasmodial imaging assay reported by Duffy and Avery was used to examine the antiplasmodial activities of synthetic indoles 25, 26, 36, 37, 38, 40, 41, 43, 45, 46, 47, 48, 50 and 51. All compounds were diluted to […] in DMSO and tested at three increasing concentrations from 0.4 nM–40 μM per log dose in a 16-point CRC ([…]) parasite strains of Plasmodium falciparum. […] Normalised percent inhibition data was obtained using in-plate positive (4 μM DHA) and negative (0.4% DMSO) controls, which were then used to calculate IC50 values. Compounds were incubated in CellCarrier-384 well imaging plates in the presence of 2% parasitemia (3D7 or Dd2) at 0.3% hematocrit in a total assay volume of 50 μL for 72 h at 37 °C, 5% O2, 5% CO2 and 90% N2. After incubation, plates were stained with 4′,6-diamidino-2-phenylindole (DAPI) and imaged using an Opera Phenix high-content imaging system (Revvity, Mulgrave, Victoria, Australia). Images were analysed using Harmony (Revvity) software (version 3), while percent parasite inhibition was calculated using the minimum (0.4% DMSO) and (DHA). IC50 values were determined by plotting % inhibition against log dose and analysed using nonlinear regression and sigmoidal dose-response using GraphPad Prism version 6.

Structure (SMILES)	% Inhibition @ 60 µM, 3D7
O=C(N[C@@H](CO)C(=O)O)C(=O)c1c[nH]c2ccc(Br)cc12 [Compound 43, 5-bromoindolyl-3-glyoxyl-L-serine]	1.0%
O=C(N[C@@H](Cc1c[nH]c2ccccc12)C(=O)O)C(=O)c1c[nH]c2cc(Br)ccc12 [Compound 47, 6-bromoindolyl-3-glyoxyl-L-tryptophan]	14.0%
O=C(N[C@H](Cc1c[nH]c2ccccc12)C(=O)O)C(=O)c1c[nH]c2cc(Br)ccc12 [Compound 48, 6-bromoindolyl-3-glyoxyl-D-tryptophan]	99.0%
O=C(N[C@H](Cc1ccc(O)cc1)C(=O)O)C(=O)c1c[nH]c2ccc(Br)cc12 [Compound 50, 5-bromoindolyl-3-glyoxyl-D-tyrosine]	99.0%

same assay, conditions: Plasmodium falciparum, 3D7, 72 h, 60 µM; chloroquine-sensitive P. falciparum strain 3D7; 72 h

Structure (SMILES)	inhibition
C[C@H]1[C@@H](O)O[C@@H]2O[C@@]3(C)CC[C@H]4[C@H](C)CC[C@@H]1[C@@]24OO3 [Dihydroartemisinin, reference compound]	100%
CCc1nc(N)nc(N)c1-c1ccc(Cl)cc1 [Pyrimethamine, reference compound]	-10%

same assay, conditions: Plasmodium falciparum; chloroquine-sensitive P. falciparum strain 3D7; control compounds

Structure (SMILES)	IC50
CCN(CC)CCCC(C)Nc1ccnc2cc(Cl)ccc12 (stereo not drawn) [Chloroquine, reference compound]	77.8 nM
C[C@H]1[C@@H](O)O[C@@H]2O[C@@]3(C)CC[C@H]4[C@H](C)CC[C@@H]1[C@@]24OO3 [Dihydroartemisinin, reference compound]	1.3 nM
COc1ccc(C[C@H](N)C(=O)N[C@H]2[C@@H](O)[C@H](n3cnc4c(N(C)C)ncnc43)O[C@@H]2CO)cc1 [Puromycin, reference compound]	79.2 nM
CCc1nc(N)nc(N)c1-c1ccc(Cl)cc1 [Pyrimethamine, reference compound]	14.1 nM

test system: P. falciparum Dd2; experiment: Antiplasmodial image-based assay, Dd2 strain; assay type: cell-based, Plasmodium falciparum; conditions: 60 µM; chloroquine-resistant P. falciparum strain Dd2; 72 h
Experimental: as §1

Structure (SMILES)	% Inhibition @ 60 µM, Dd2
O=C(N[C@@H](CO)C(=O)O)C(=O)c1c[nH]c2ccc(Br)cc12 [Compound 43, 5-bromoindolyl-3-glyoxyl-L-serine]	1.0%
O=C(N[C@@H](Cc1c[nH]c2ccccc12)C(=O)O)C(=O)c1c[nH]c2cc(Br)ccc12 [Compound 47, 6-bromoindolyl-3-glyoxyl-L-tryptophan]	20.0%
O=C(N[C@H](Cc1c[nH]c2ccccc12)C(=O)O)C(=O)c1c[nH]c2cc(Br)ccc12 [Compound 48, 6-bromoindolyl-3-glyoxyl-D-tryptophan]	97.5%
O=C(N[C@H](Cc1ccc(O)cc1)C(=O)O)C(=O)c1c[nH]c2ccc(Br)cc12 [Compound 50, 5-bromoindolyl-3-glyoxyl-D-tyrosine]	97.5%

same assay, conditions: Plasmodium falciparum; chloroquine-resistant P. falciparum strain Dd2; control compounds

Structure (SMILES)	IC50
CCN(CC)CCCC(C)Nc1ccnc2cc(Cl)ccc12 (stereo not drawn) [Chloroquine, reference compound]	696 nM
C[C@H]1[C@@H](O)O[C@@H]2O[C@@]3(C)CC[C@H]4[C@H](C)CC[C@@H]1[C@@]24OO3 [Dihydroartemisinin, reference compound]	1.7 nM
COc1ccc(C[C@H](N)C(=O)N[C@H]2[C@@H](O)[C@H](n3cnc4c(N(C)C)ncnc43)O[C@@H]2CO)cc1 [Puromycin, reference compound]	86.5 nM

test system: HEK293 cells; experiment: HEK293 cell cytotoxicity; assay type: cell-based; conditions: 60 µM; human embryonic kidney cell line

Structure (SMILES)	% Inhibition @ 60 µM, HEK293
O=C(N[C@@H](CO)C(=O)O)C(=O)c1c[nH]c2ccc(Br)cc12 [Compound 43, 5-bromoindolyl-3-glyoxyl-L-serine]	21.0%
O=C(N[C@@H](Cc1c[nH]c2ccccc12)C(=O)O)C(=O)c1c[nH]c2cc(Br)ccc12 [Compound 47, 6-bromoindolyl-3-glyoxyl-L-tryptophan]	14.0%
O=C(N[C@H](Cc1c[nH]c2ccccc12)C(=O)O)C(=O)c1c[nH]c2cc(Br)ccc12 [Compound 48, 6-bromoindolyl-3-glyoxyl-D-tryptophan]	16.0%
O=C(N[C@H](Cc1ccc(O)cc1)C(=O)O)C(=O)c1c[nH]c2ccc(Br)cc12 [Compound 50, 5-bromoindolyl-3-glyoxyl-D-tyrosine]	20.5%

same assay, conditions: HEK293; human embryonic kidney cell line

Structure (SMILES)	IC50
COc1ccc(C[C@H](N)C(=O)N[C@H]2[C@@H](O)[C@H](n3cnc4c(N(C)C)ncnc43)O[C@@H]2CO)cc1 [Puromycin, reference compound]	673 nM

target: T1, SARS-CoV-2 3CLpro (Severe acute respiratory syndrome coronavirus 2, UniProt P0DTD1); experiment: biochemical; conditions: 20 µM; no DTT
T1 construct: Each well contained 25 nM of SARS-CoV-2 3CL^Pro and eCFP-Venus biosensor (500 nM)

Structure (SMILES)	% inhibition @ 20 µM, No DTT
C[C@H](NC(=O)C(=O)c1c[nH]c2cc(Br)ccc12)C(=O)O [Compound 27, 6-bromoindolyl-3-glyoxyl-L-alanine]	1.9%
C[C@@H](NC(=O)C(=O)c1c[nH]c2cc(Br)ccc12)C(=O)O [Compound 28, 6-bromoindolyl-3-glyoxyl-D-alanine]	1.7%
N=C(N)NCCC[C@H](NC(=O)C(=O)c1c[nH]c2ccc(Br)cc12)C(=O)O [Compound 29, 5-bromoindolyl-3-glyoxyl-L-arginine]	13.8%
O=C(N[C@@H](CO)C(=O)O)C(=O)c1c[nH]c2ccc(Br)cc12 [Compound 43, 5-bromoindolyl-3-glyoxyl-L-serine]	105.5%
O=C(N[C@@H](Cc1c[nH]c2ccccc12)C(=O)O)C(=O)c1c[nH]c2cc(Br)ccc12 [Compound 47, 6-bromoindolyl-3-glyoxyl-L-tryptophan]	24.4%
O=C(N[C@H](Cc1c[nH]c2ccccc12)C(=O)O)C(=O)c1c[nH]c2cc(Br)ccc12 [Compound 48, 6-bromoindolyl-3-glyoxyl-D-tryptophan]	20.8%
O=C(N[C@H](Cc1ccc(O)cc1)C(=O)O)C(=O)c1c[nH]c2ccc(Br)cc12 [Compound 50, 5-bromoindolyl-3-glyoxyl-D-tyrosine]	6.1%

same assay, conditions: 20 µM; with DTT (4 mM)

Structure (SMILES)	% inhibition @ 20 µM, DTT
C[C@H](NC(=O)C(=O)c1c[nH]c2cc(Br)ccc12)C(=O)O [Compound 27, 6-bromoindolyl-3-glyoxyl-L-alanine]	1.3%
C[C@@H](NC(=O)C(=O)c1c[nH]c2cc(Br)ccc12)C(=O)O [Compound 28, 6-bromoindolyl-3-glyoxyl-D-alanine]	0.8%
N=C(N)NCCC[C@H](NC(=O)C(=O)c1c[nH]c2ccc(Br)cc12)C(=O)O [Compound 29, 5-bromoindolyl-3-glyoxyl-L-arginine]	2.4%
O=C(N[C@@H](CO)C(=O)O)C(=O)c1c[nH]c2ccc(Br)cc12 [Compound 43, 5-bromoindolyl-3-glyoxyl-L-serine]	2.0%
O=C(N[C@@H](Cc1c[nH]c2ccccc12)C(=O)O)C(=O)c1c[nH]c2cc(Br)ccc12 [Compound 47, 6-bromoindolyl-3-glyoxyl-L-tryptophan]	4.1%
O=C(N[C@H](Cc1c[nH]c2ccccc12)C(=O)O)C(=O)c1c[nH]c2cc(Br)ccc12 [Compound 48, 6-bromoindolyl-3-glyoxyl-D-tryptophan]	2.0%
O=C(N[C@H](Cc1ccc(O)cc1)C(=O)O)C(=O)c1c[nH]c2ccc(Br)cc12 [Compound 50, 5-bromoindolyl-3-glyoxyl-D-tyrosine]	0.9%

same assay, conditions: no DTT

Structure (SMILES)	IC50
O=C(N[C@@H](CO)C(=O)O)C(=O)c1c[nH]c2ccc(Br)cc12 [Compound 43, 5-bromoindolyl-3-glyoxyl-L-serine]	1200 nM

target: T2, porcine pancreatic elastase (Sus scrofa, UniProt P00772); experiment: Serine protease assay, elastase; assay type: biochemical; conditions: remaining enzyme activity
T2 construct: high-purity porcine pancreatic elastase (Sigma, Melbourne, Victoria, Australia, E0258); purchased Sigma E0258
Experimental: (§2) Serine protease-inhibitory activities for 25–56 were determined in 96 well plates. Each inhibitor was initially tested in duplicate against elastase and chymotrypsin at 10 µM. […] Assays for the inhibition of elastase were undertaken using high-purity porcine pancreatic elastase (Sigma, Melbourne, Victoria, Australia, E0258) in an assay buffer of 50 mM Tris-HCl (pH 8.0) at room temperature. Dilutions of each inhibitor (originally resuspended in DMSO) were prepared in triplicate and then preincubated with 375 ng of elastase for 15 min at room temperature in a total reaction volume of 85 µL. Following this preincubation, 15 µL of 2 mM N-succinyl-Ala-Ala-Ala-p-nitroanilide (Sigma, S4760) in assay buffer was added to each well and kinetic measurement of absorbance at 405 nm (Tecan Spark Plate Reader, Zürich, Switzerland) was undertaken for 30 min. […] Dilutions of each inhibitor were prepared in triplicate and preincubated with 5 µg of chymotrypsin for 10 min at 37 °C in a total reaction volume of 75 µL. After preincubation, 25 µL of 2 mM N-succinyl-Gly-Gly-Phe-p-nitroanilide (Sigma, S1899) was added to each well and kinetic measurement of absorbance at 405 nm was undertaken for 30 min. Inhibitory activity was determined by comparison of the slope of the reaction curve for multiple dilutions of the inhibitor to that of an equivalent solvent control and expressed as IC50 ± standard deviation.

T2 sequence (P00772 27-266): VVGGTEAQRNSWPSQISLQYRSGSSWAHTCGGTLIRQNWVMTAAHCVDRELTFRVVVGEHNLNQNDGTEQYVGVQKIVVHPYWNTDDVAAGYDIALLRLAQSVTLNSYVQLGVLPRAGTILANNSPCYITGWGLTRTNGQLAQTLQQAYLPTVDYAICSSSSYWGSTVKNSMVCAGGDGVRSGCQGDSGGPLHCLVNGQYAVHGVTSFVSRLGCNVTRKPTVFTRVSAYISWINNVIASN

Structure (SMILES)	% enzyme activity @ 10 µM, elastase
C[C@H](NC(=O)C(=O)c1c[nH]c2cc(Br)ccc12)C(=O)O [Compound 27, 6-bromoindolyl-3-glyoxyl-L-alanine]	109.6%
C[C@@H](NC(=O)C(=O)c1c[nH]c2cc(Br)ccc12)C(=O)O [Compound 28, 6-bromoindolyl-3-glyoxyl-D-alanine]	107.4%
N=C(N)NCCC[C@H](NC(=O)C(=O)c1c[nH]c2ccc(Br)cc12)C(=O)O [Compound 29, 5-bromoindolyl-3-glyoxyl-L-arginine]	100.8%
O=C(N[C@@H](CO)C(=O)O)C(=O)c1c[nH]c2ccc(Br)cc12 [Compound 43, 5-bromoindolyl-3-glyoxyl-L-serine]	101.4%
O=C(N[C@@H](Cc1c[nH]c2ccccc12)C(=O)O)C(=O)c1c[nH]c2cc(Br)ccc12 [Compound 47, 6-bromoindolyl-3-glyoxyl-L-tryptophan]	89.5%
O=C(N[C@H](Cc1c[nH]c2ccccc12)C(=O)O)C(=O)c1c[nH]c2cc(Br)ccc12 [Compound 48, 6-bromoindolyl-3-glyoxyl-D-tryptophan]	91.1%
O=C(N[C@H](Cc1ccc(O)cc1)C(=O)O)C(=O)c1c[nH]c2ccc(Br)cc12 [Compound 50, 5-bromoindolyl-3-glyoxyl-D-tyrosine]	95.3%

target: T3, α-chymotrypsin from bovine pancreas (Bos taurus, UniProt P00766); experiment: Serine protease assay, chymotrypsin; assay type: biochemical; conditions: 10 µM; remaining enzyme activity
T3 construct: α-chymotrypsin from bovine pancreas (Sigma, C4129); purchased Sigma C4129; host or cells: bovine pancreas
Experimental: as §2

Structure (SMILES)	% enzyme activity @ 10 µM, chymotrypsin
C[C@H](NC(=O)C(=O)c1c[nH]c2cc(Br)ccc12)C(=O)O [Compound 27, 6-bromoindolyl-3-glyoxyl-L-alanine]	94.4%
C[C@@H](NC(=O)C(=O)c1c[nH]c2cc(Br)ccc12)C(=O)O [Compound 28, 6-bromoindolyl-3-glyoxyl-D-alanine]	92.1%
N=C(N)NCCC[C@H](NC(=O)C(=O)c1c[nH]c2ccc(Br)cc12)C(=O)O [Compound 29, 5-bromoindolyl-3-glyoxyl-L-arginine]	88.8%
O=C(N[C@@H](CO)C(=O)O)C(=O)c1c[nH]c2ccc(Br)cc12 [Compound 43, 5-bromoindolyl-3-glyoxyl-L-serine]	96.1%
O=C(N[C@@H](Cc1c[nH]c2ccccc12)C(=O)O)C(=O)c1c[nH]c2cc(Br)ccc12 [Compound 47, 6-bromoindolyl-3-glyoxyl-L-tryptophan]	99.6%
O=C(N[C@H](Cc1c[nH]c2ccccc12)C(=O)O)C(=O)c1c[nH]c2cc(Br)ccc12 [Compound 48, 6-bromoindolyl-3-glyoxyl-D-tryptophan]	83.6%
O=C(N[C@H](Cc1ccc(O)cc1)C(=O)O)C(=O)c1c[nH]c2ccc(Br)cc12 [Compound 50, 5-bromoindolyl-3-glyoxyl-D-tyrosine]	89.2%
